Reference: a compilation of properties of binary mixtures (doi:10.1039/c8ra04127j)

Assay: xn = mol fraction of the nth substance listed
Settings: 100 kPa

CC#N + C[N+](C)(C)CCC[n+]1ccccc1.N#C[N-]C#N.N#C[N-]C#N
x2 = 0
Settings	viscosity [mPa·s]
283.15 K	0.401
288.15 K	0.382
293.15 K	0.364
298.15 K	0.348
303.15 K	0.333
308.15 K	0.32
313.15 K	0.307
318.15 K	0.296
323.15 K	0.285

CC#N + C[N+](C)(C)CCC[N+]1(C)CCCCC1.N#C[N-]C#N.N#C[N-]C#N
x2 = 0
Settings	viscosity [mPa·s]
293.15 K	0.364
308.15 K	0.32
313.15 K	0.307
318.15 K	0.296
323.15 K	0.285
328.15 K	0.275

C[N+](C)(C)CCC[n+]1ccccc1.N#C[N-]C#N.N#C[N-]C#N + CC#N
viscosity [mPa·s]
Settings	x1 = 0.0999	x1 = 0.1999	x1 = 0.2998	x1 = 0.3997	x1 = 0.4999	x1 = 0.6002	x1 = 0.7001	x1 = 0.7998	x1 = 0.8997	x1 = 1
283.15 K	4.14	14.2	52.8	131	245	474	–	1385	2375	7557
288.15 K	3.75	12.3	42.2	98	175	321	554	848	–	–
293.15 K	3.45	–	34.5	–	129	226	371	562	850	–
298.15 K	3.21	9.55	28.7	59.8	98	166	264	382	–	1306
303.15 K	–	8.55	–	48.3	76.3	125	192	–	392	831
308.15 K	2.83	–	21	39.6	61.3	96.7	146	200	286	558
313.15 K	2.67	7.03	18.2	33.3	50	76.6	109	145	213	386
318.15 K	2.54	6.43	–	28.2	43.5	63.9	89.7	118	161	281
323.15 K	–	5.91	14.1	24.2	36.7	51.7	70.9	91.6	123	–
328.15 K	2.32	5.47	12.5	21	30.6	43.3	57.6	73.2	95.6	162
333.15 K	2.23	–	11.2	18.4	27.6	–	48.5	60.3	75.3	127

C[N+](C)(C)CCC[N+]1(C)CCCCC1.N#C[N-]C#N.N#C[N-]C#N + CC#N
viscosity [mPa·s]
Settings	288.15 K	293.15 K	298.15 K	303.15 K	308.15 K	313.15 K	318.15 K	323.15 K	328.15 K	333.15 K
x1 = 0.0999	3.99	–	3.42	3.18	–	2.81	–	2.54	2.43	2.32
x1 = 0.2001	17.4	15.1	13.2	11.6	10.3	–	–	7.49	–	6.16
x1 = 0.3001	56.9	45.9	–	31.4	–	22.7	19.6	–	15.4	13.7
x1 = 0.3998	146	112	87.3	–	–	46.6	39.3	33.3	28.6	24.8
x1 = 0.5002	334	243	–	139	–	87	–	58.2	–	–
x1 = 0.6	679	466	322	246	185	145	114	–	–	62.3
x1 = 0.7001	1177	729	508	370	274	210	–	–	105	85.5
x1 = 0.7996	–	1390	900	623	449	329	246	193	152	122
x1 = 0.8998	3992	2477	1610	1085	760	–	400	303	233	–
x1 = 1	7553	–	–	1837	1224	856	–	460	350	270
